The text below walks through data of patent US10195178B2, “GPR40 agonists in anti-diabetic drug combinations” (Janssen Pharmaceutica NV, priority 2016, dated 2019).

By EC50 is commonly meant the concentration at which the effect is half-maximal.

SMILES strings stand for the structures. Values joined by “and” are separate entries in the source; they are usually repeats but may differ in a detail not shown here. Equal entries are not always repeated.

In assay [1] the test system is SD rats. Put plainly: Oral Glucose Tolerance Test: Canagliflozin Combination with GPR40 Agonist. The class given is in vivo. Particulars: SD rat OGTT; for Blood glucose 0 min / Blood glucose 30 min / Blood glucose 60 min / Blood glucose 120 min / Blood glucose AUC / Blood glucose AUC % of Vehicle: single oral dose 60 min before glucose 2 g/kg; for Blood glucose AUC / Blood glucose AUC % of Vehicle: AUC 0-120 min. The procedure: We have evaluated the blood glucose (BG) lowering effect of canagliflozin (Cana) combined with a GPR40 agonist Cpd 2 in SD rat studies. Overnight fasted SD rats received either a single treatment of Cana or Cpd 2 or a combination of both. An oral glucose tolerance test (OGTT) was followed at 60 min post compound administration. […] The two-sided Z Test and Delta method were applied to statistically determine the treatment additivity of combinations using blood glucose AUC values. Results indicated the treatments were additive in the combinations of Canagliflozin at 1 or 3 mg/kg and Cpd 2 at 0.3 or 1 mg/kg.
• A. The formulation of Canagliflozin was prepared by directly adding the required amount of 0.5% HPMC to the compound and stirring overnight. • B. The formulation of Cpd 2 was prepared following steps listed below: • a. One equivalent (amount of compound/compound MW) of 1N NaOH was added to dry compound to enhance water solubility (due to compound itself is a carboxylic acid). • b. The required volume of 0.5% HPMC was then added; • c. The compound was vortexed and sonicated (without heat) for a minimum of 10 minutes. • d. The compound was then allowed to stir overnight. • C. For the formulation of combination of Canagliflozin (Cana) and Cpd 2: • a. First, a formulation of double concentrations of each compound was prepared.
• b. Right before dosing, the double-concentrated formulation of Cpd 2 was mixed with an equal volume of the double-concentrated formulation of Canagliflozin, such that each compound was as 1× concentration. • D. The dosing volume for all the experiments was 10 mL/kg Experimental Design
Male SD rats (225-245 g of body weight, purchased from Charles River) were used in this study. SD rats were housed 2 per cage in a temperature-controlled room with 12-hour light/dark cycle (6 am-6 pm lights on). They are allowed ad libitum access to water and fed with Purina 5K75 (LabDiet, St. Louis, Mo.).
SD rats were fasted overnight. In the morning of the next day, these rats were grouped into the following 12 groups based on their fasted blood glucose levels determined by a glucometer (LifeScan, New Brunswick, N.J.) and body weight.
At −60 minutes BG values were collected via tail bleeding. Next, rats were dosed orally with vehicle or compounds in vehicle. Then, at 0 minutes, rats were bled via tail vein to determine BG levels and dosed orally with glucose (2 g/kg; 50% glucose, 4 mL/kg). Blood samples were collected at 30, 60, and 120 minutes after oral glucose administration for BG determination.
Statistical analysis were performed using the program Prism (Graphpad, Monrovia, Calif.) with either a repeated measures 1-way ANOVA (glucose and insulin curves with Tukey's post-test) or a one-way ANOVA and Tukey's multiple comparison test (AUC, delta AUC and percent vehicle). All data are presented as the mean±standard error of the mean (SEM).
The two-sided Z Test and Delta method was applied to statistically determine the treatment additivity of combinations.

The target of assay [2] is human GPR40 (Homo sapiens (Human), UniProt O14842). Put plainly: GPR40 Calcium Flux Assay. Particulars: transfected HEK293 cells stably expressing human GPR40; mean data; read-out: hGPR40 Ca2+ Assay EC50. The class given is cell-based. The procedure:
Compounds were tested in a calcium flux assay using transfected HEK293 cells stably expressing either human GPR40 or rat GPR40. Human GPR40 expressing cells were cultured in DMEM-High Glucose media supplemented with 10% fetal bovine serum, 1×L-Glutamine, 1×Penicillin/Streptomycin and 500 μg/mL G418. Rat GPR40 expressing cells were cultured in DMEM-High Glucose media supplemented with 10% fetal bovine serum and 1 μg/mL puromycin. Cells were plated into poly-D-lysine coated 384-well plates and cultured overnight in a 37° C. humidified tissue culture incubator under 5% CO2/[…] atmosphere. On the day of the experiment, the culture media was replaced with assay buffer (HBSS, 20 mM HEPES, 0.1% BSA) and the cells incubated at 37° C. for 1 h. Calcium-sensitive fluorescent dye (Fluo 8 No-Wash Calcium Dye, ABD Bioquest) was then added and the cells incubated for another 30 min at 37° C. followed by 15 min at room temperature while protected from the light. The cell plate and a plate of diluted compounds of Formula (I) were loaded into a fluorescent plate reader that added compounds onto the cells while measuring the fluorescence intensity of each well. The plate reader recorded fluorescence intensity at 1 second intervals for 8 min and provided the data for analysis in an Excel format. EC50 values were calculated using Prism (GraphPad) software.
On the technique in general: Calcium flux is commonly read through the fluorescence of an indicator in the cells.

Sequence of human GPR40 (O14842 whole entry): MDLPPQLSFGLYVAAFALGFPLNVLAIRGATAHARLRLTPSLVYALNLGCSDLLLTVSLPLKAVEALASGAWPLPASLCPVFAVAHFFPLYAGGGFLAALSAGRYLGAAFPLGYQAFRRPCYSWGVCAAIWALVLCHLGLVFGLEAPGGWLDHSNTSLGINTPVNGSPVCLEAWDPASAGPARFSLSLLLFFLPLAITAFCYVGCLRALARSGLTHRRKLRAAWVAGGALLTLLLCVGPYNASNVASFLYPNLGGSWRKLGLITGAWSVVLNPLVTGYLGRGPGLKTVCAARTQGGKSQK

For the compound `Cc1ccc([C@@H]2O[C@H](CO)[C@@H](O)[C@H](O)[C@H]2O)cc1Cc1ccc(-c2ccc(F)cc2)s1` [Cana, canagliflozin], the “Blood glucose lowering during OGTT (in words)” value in assay [1] (10 mg/kg) is reported as “markedly lowering blood glucose”. Moreover, in assay [1] (1 mpk), the “Blood glucose 0 min” value stood at 76.9 ± 2.3 mg/dL, the “Blood glucose 30 min” value was determined as 162.8 ± 6.5 mg/dL, the “Blood glucose 60 min” value was 177.8 ± 4.0 mg/dL and the “Blood glucose 120 min” value was 135.5 ± 8.2 mg/dL. Further, in assay [1] (1 mpk), the “Blood glucose AUC” value was 18,099 ± 551 mg/dL/120 min and the “Blood glucose AUC % of Vehicle” value is listed as 95.4 ± 2.9%. In addition, in assay [1] (3 mpk), the “Blood glucose 0 min” value is 85.1 ± 3.0 mg/dL, the “Blood glucose 30 min” value was 140.5 ± 5.1 mg/dL, the “Blood glucose 60 min” value was 156.4 ± 4.0 mg/dL and the “Blood glucose 120 min” value was 125.1 ± 9.7 mg/dL. In addition, in assay [1] (3 mpk), the “Blood glucose AUC” value is 16,204 ± 412 mg/dL/120 min and the “Blood glucose AUC % of Vehicle” value is listed as 85.4 ± 2.2%. In addition, in assay [1] (10 mpk), the “Blood glucose 0 min” value is 73.6 ± 4.4 mg/dL, the “Blood glucose 30 min” value is 91.9 ± 6.4 mg/dL, the “Blood glucose 60 min” value was 103.5 ± 5.4 mg/dL and the “Blood glucose 120 min” value came out at 95.1 ± 3.7 mg/dL. Further, in assay [1] (10 mpk), the “Blood glucose AUC” value is listed as 11,400 ± 459 mg/dL/120 min and the “Blood glucose AUC % of Vehicle” value was 60.1 ± 2.4%.
As to `CC#C[C@@H](CC(=O)O)c1ccc(OCc2ccc3scc(-c4ccc(OCCOC)cc4C)c3c2)nc1` [Cpd 77, (3R)-3-(6-((3-(4-(2-Methoxyethoxy)-2-methylphenyl)benzo[b]thiophen-5-yl)methoxy)pyridin-3-yl)hex-4-ynoic acid], the half-maximal effective concentration (EC50) in assay [2] is 16 nM and 6 nM and 5 nM.
Consider `CC#C[C@@H](CC(=O)O)c1ccc(OCc2ccc3scc(-c4ccccc4C)c3c2)cc1` [Cpd 2, (3S)-3-[4-[[3-(2-Methylphenyl)benzo[b]thiophen-5-yl]methoxy]phenyl]hex-4-ynoic acid], for which, in assay [1] (0.3 mpk), the “Blood glucose 0 min” value was determined as 86.1 ± 4.2 mg/dL, the “Blood glucose 30 min” value turned out to be 149.0 ± 4.3 mg/dL, the “Blood glucose 60 min” value is 153.1 ± 4.2 mg/dL and the “Blood glucose 120 min” value stood at 103.3 ± 4.0 mg/dL. Further, in assay [1] (0.3 mpk), the “Blood glucose AUC” value is reported as 15,750 ± 244 mg/dL/120 min and the “Blood glucose AUC % of Vehicle” value was determined as 83.0 ± 1.3%. Moreover, in assay [1] (1 mpk), the “Blood glucose 0 min” value was 76.1 ± 5.0 mg/dL, the “Blood glucose 30 min” value was determined as 132.3 ± 6.4 mg/dL, the “Blood glucose 60 min” value is 139.6 ± 7.3 mg/dL and the “Blood glucose 120 min” value was 102.4 ± 4.8 mg/dL. Also, in assay [1] (1 mpk), the “Blood glucose AUC” value was 14,464 ± 554 mg/dL/120 min and the “Blood glucose AUC % of Vehicle” value is on record as 76.2 ± 2.9%.
For the compound `Cc1ccccc1-c1csc2ccc(COc3ccc([C@]4(CC(=O)O)C[C@@H](O)C4)cc3)cc12` [Cpd 31, 2-((1r,3r)-3-Hydroxy-1-(4-((3-(2-methylphenyl)benzo[b]thiophen-5-yl)methoxy)phenyl)cyclobutyl)acetic acid], in assay [2], the EC50 worked out at 48 nM.
Take `CC#CC(CC(=O)O)c1ccc(OCc2ccc3scc(-c4ccccc4C)c3c2)cc1` (stereo not shown) [Cpd 97, 3-(4-((3-(2-Methylphenyl)benzo[b]thiophen-5-yl)methoxy)phenyl)hex-4-ynoic acid]: the EC50 in assay [2] came to 4 nM.
